# Experiments:
# [1] = orientative acute toxicity (LD50) in mice; details: mouse, in vivo, single oral administration, assessed on seventh day
# Protocol: The toxicity of the compounds of the invention is negligible. Nine hours food deprived mice were treated orally with single administration of increasing doses, then housed and normally fed. The orientative acute toxicity (LD50) was assessed on the seventh day after the treatment and, for example, the following data were obtained: […]
# [2] = tested on: syndrome induced by oxotremorine; assay: antagonism against syndrome induced by oxotremorine in mice (anti-cholinergic activity); type: in vivo, mice (male); details: Mus musculus, po, approximate ED50, read-out: Anticholinergic activity ED50 p.o.
# Protocol: Considering that many anti-ulcer agents display, as does atropine, a remarkable but undesired anti-cholinergic activity, the compounds of the invention were also assessed for their antagonism against syndrome induced by oxotremorine in mice, according to the method described by Leszkovszky G. P. and Tardos L. (Europ. J. Pharmac. 1971, 15, 310). According to this method 5 male mice, 20-25 g body weight, were used for each group.
# restraint ulcers = assay: inhibition of restraint ulcers in rats (anti-ulcerogenic activity); type: in vivo, rat (Sprague-Dawley male); details: po, 4 h; rat, p.o., approximate ED50; read-out: Antiulcerogenic activity ED50 p.o.
# Source text: The compounds of the invention are also useful for reducing the undesirable gastrointestinal side-effects resulting from systemic administration of anti-inflammatory prostaglandin synthetase inhibitors and may be, therefore, used for this purpose in association with them. The anti-ulcerogenic activity of the compounds of the invention is shown, e.g., by the fact that they are active in the test of the inhibition of restraint ulcers in rats, according to the method of Bonfils et al., (Therapie, 1960, 5, 1096; Jap. J. Pharmac. 1945, 43, 5).
# According to this method, the tested compounds were administered per os (p.o.) one hour before the immobilization. Six Sprague-Dawley male rats (100-120 g) fasted 24 hours were used for the experiment: a square flexible small-mesh wire netting was used for the immobilization and 4 hours after the immobilization the rats were sacrificed, their stomachs were removed and the lesions counted under a dissecting microscope.
# gastric secretion = assay: inhibition of gastric secretion in pylorus-ligated rats (antisecretory activity, method of Shay); type: in vivo, rat (Sprague-Dawley male); details: 4 h; rat, intraduodenal, approximate ED50; read-out: Antisecretory activity ED50 i.d.
# Protocol: According to this method the tested compounds were injected intraduodenally (i.d.) at the time of ligature.
# Six Sprague-Dawley male rats (110-130 g) were used for each group. Twenty-four hours before the test, the rats were deprived of food but the water supply was maintained. On the day of the operation, the pylorus was ligated under light ether anaesthesia. Four hours after the ligature, the rats were sacrificed. The stomach secretion was collected and centrifugated at 3500 r.p.m. for 10 minutes and the volume, less sediment, was determined.
# The amount of free hydrochloric acid in the gastric juice was determined by titration against 0.01N sodium hydroxide, to an end point of pH 7.
# [3] = tested on: antibody response against sheep red blood cells (SRBC); assay: antibody response induced in mice by suboptimal dose of sheep red blood cells (immunomodulating activity); type: in vivo, mice (female CD-1); details: i.p., 50 and 5 mg/kg two hours before antigen, vs control group, six days later
# Protocol: Their immunomodulating activity is, for example, proven by their capacity to modify the antibody response induced in mice by a suboptimal dose of sheep red blood cells (SRBC) injected by intraperitoneal route (i.p.).
# Groups of ten female CD-1 mice were injected i.p. with 2×10^6 SRBC as antigen. The tested compounds were administered i.p. at two dosage levels: 50 and 5 mg/kg body weight, two hours before the administration of the antigen. A control group of mice received SRBC and saline instead of the compounds. Six days later the mice were killed and antibody titres against SRBC determined in their sera, according to Williams C. A.: Methods in Immunology and Immunochemistry, C. A. Williams and M. W. Chase, Eds. Academic Press, New York, Vol. II, page 152, 1977.
# [4] = tested on: herpes simplex virus strain 1RC; assay: herpes simplex virus experimental infection in mice; type: in vivo, CD-1 mice; details: single dose one or two days after the infection
# Protocol: (§1) The antiviral activity of the compound of the invention was, for example, evaluated on influenza and herpes simplex viruses experimental infections in mice.
# (§2) Groups of CD-1 mice were infected intranasally with the strain APR 8 of influenza virus and other groups were infected intraperitoneally with the strain 1RC of herpes simplex virus. The tested compounds were administered through various routes, e.g. intraperitoneally, subcutaneously, orally.
# (§3) The effect of the tested compounds, against the influenza virus, was evaluated on the basis of the number of lung lesions and, against the herpes infection, the parameter considered was the protection from mortality since, as is known, herpes simplex infection is lethal in mice.
# [5] = tested on: influenza virus strain APR 8; assay: influenza virus experimental infection in mice; type: in vivo, CD-1 mice; details: single dose one or two days after the infection
# Protocol: as §1, §2, §3
# [6] = lipid-lowering activity in rats fed standard MS/K Altromin diet (Experiment 2); type: in vivo, rat (Iva-SIV (SPF) male)
# Protocol: (§4) The activity of the compounds of the invention was evaluated: (1) on groups of Icem:CER (SPF Caw) male rats, fed for six days with hypercholesterolaemic diet according to C. E. Day: Shur P. E., Shultz H. R., Day C. E. (Ed.) Atherosclerosis and drug discovery Plenum Pub. Corp., 217 (1976): Experiment 1; or (2) or groups of Iva-SIV (SPF) male rats fed standard MS/K Altromin® diet: Experiment 2. MS/K Altromin is a trade mark.
# (§5) The tested compounds were suspended in Methocel (methyl-cellulose, a 0.5% solution in water) and administered by stomach tube at the dose of 50 mg/kg for 4 days in both the experiments.
# (§6) Groups of animals were treated with the suspending agent only (control groups).
# (§7) The total serum cholesterol was determined with the method of Allain, Clin. Chem., 1974, 20, 470.
# The serum triglycerides were determined with the method of Mendez, J. Clin. Chem., 1975, 21, 768.
# (§8) The total serum HDL cholesterol was determined according to Demacker P. N. H., Clin. Chem., 1977, 23, 1238.
# (§9) The total β-lipoprotein cholesterol was determined by difference between total serum cholesterol and HDL cholesterol. Statistical analysis in experiment 1 and 2 was performed by the Student's t test for independent samples or by the Cochran's test when the variances were not homogeneous at the F ratio test [Bliss C. I., Statistics in Biology, Vol. 1, page 213 McGraw Hill Book Company, New York 1967; Cochran W. G., Cox C. H., Experimental designs-J. Willey and Sons Inc., New York, II Ed. (1968), page 100].
# [7] = lipid-lowering activity in rats fed hypercholesterolaemic diet (Experiment 1); type: in vivo, rat (Icem:CER (SPF Caw) male)
# Protocol: as §4, §5, §6, §7, §8, §9
# [8] = Experiment 2, 50 mg/kg/os, vs control
smiles,measurement,setting,value
"N#CC1Oc2ccccc2-c2ccccc21 (centres unmarked) [FCE 20493, 6H,6-cyano-dibenzo[b,d]pyran]",LD50 at 168 h,[1],400 to 800 mg/kg
"N#CC1(CO)Oc2ccccc2-c2ccccc21 (centres unmarked) [FCE 20518, 6H,6-cyano-6-hydroxymethyl-dibenzo[b,d]pyran]",LD50 at 168 h,[1],> 800 mg/kg
"CC1(C#N)Oc2ccccc2-c2ccccc21 (centres unmarked) [FCE 20519, 6H,6-cyano-6-methyl-dibenzo[b,d]pyran]",LD50 at 168 h,[1],> 800 mg/kg
"CCOC(=O)C1Oc2ccccc2-c2ccccc21 (centres unmarked) [FCE 20521, 6H,6-ethoxycarbonyl-dibenzo[b,d]pyran]",LD50 at 168 h,[1],> 800 mg/kg
"NCC1Oc2ccccc2-c2ccccc21 (centres unmarked) [FCE 20524, 6H,6-aminomethyl-dibenzo[b,d]pyran]",ED50,[2],> 100 mg/kg
same,ED50,restraint ulcers,4.8 mg/kg
same,LD50 at 168 h,[1],400 to 800 mg/kg
same,ED50,gastric secretion,6 mg/kg
"O=C(O)C1(CO)Oc2ccccc2-c2ccccc21 (centres unmarked) [FCE 20561, 6H,6-carboxy-6-hydroxymethyl-dibenzo[b,d]pyran]",LD50 at 168 h,[1],> 800 mg/kg
"CC1(C(=O)O)Oc2ccccc2-c2ccccc21 (centres unmarked) [FCE 20562, 6H,6-carboxy-6-methyl-dibenzo[b,d]pyran]",LD50 at 168 h,[1],400 to 800 mg/kg
"c1ccc2c(c1)OC(N1CCNCC1)c1ccccc1-2 (centres unmarked) [FCE 20618, 6H,6-(1-piperazinyl)-dibenzo[b,d]pyran]",ED50,[2],> 100 mg/kg
same,ED50,restraint ulcers,7 mg/kg
same,LD50 at 168 h,[1],400 to 800 mg/kg
same,ED50,gastric secretion,1.5 mg/kg
"CN(C)CCOC(=O)C1Oc2ccccc2-c2ccccc21 (centres unmarked) [FCE 20696, 6H,6-(2-dimethylaminoethoxycarbonyl)-dibenzo[b,d]pyran]",antibody titres against SRBC,[3],increased the antibody titers several fold as compared to control group
same,protection from mortality (animals protected from death),[4],up to 45%
same,number of lung lesions,[5],reducing substantially the number of lung lesions
same,LD50 at 168 h,[1],400 to 800 mg/kg
"CC1(C(=O)O)Oc2ccc(Cl)cc2-c2ccccc21 (centres unmarked) [FCE 20770, 6H,6-carboxy-6-methyl-2-chloro-dibenzo[b,d]pyran]",LD50 at 168 h,[1],400 to 800 mg/kg
"O=C(O)CC1Oc2ccccc2-c2ccccc21 (centres unmarked) [FCE 20881, 6H,6-carboxymethyl-dibenzo[b,d]pyran]","β-lipoprotein cholesterol, mean ± S.E.","[6]; Experiment 2, 50 mg/kg/os for 4 days, standard diet, control 27.1 ± 1.1",20.5 ± 0.8 mg/100 ml
same,"Total serum cholesterol, mean ± S.E.","[6]; Experiment 2, 50 mg/kg/os for 4 days, standard diet, control 66.3 ± 1.7",57.7 ± 1.5 mg/100 ml
same,"Serum triglycerides (printed ""trygylcerides""), mean ± S.E.","[6]; Experiment 2, 50 mg/kg/os for 4 days, standard diet, control 228.7 ± 18.9",168.3 ± 13.4 mg/100 ml
same,"Serum triglycerides, Student's t test result",[6]; [8],S (significant (p <0.05))
same,"Total serum cholesterol, Student's t test result",[6]; [8],HS (highly significant (p <0.01))
same,"β-lipoprotein cholesterol, Student's t test result",[6]; [8],HS (highly significant (p <0.01))
same,"effect on total serum cholesterol, β-lipoprotein cholesterol and serum triglycerides","[6]; Experiment 2, in words","decrease the total serum cholesterol, in particular β-lipoprotein cholesterol and serum triglycerides"
same,LD50 at 168 h,[1],400 to 800 mg/kg
same,"Serum HDL total cholesterol, mean ± S.E.","[7]; Experiment 1, 50 mg/kg/os for 4 days, hypercholesterolaemic diet, control 13.2 ± 1.8",23.2 ± 0.5 mg/100 ml
same,"Total serum cholesterol, mean ± S.E.","[7]; Experiment 1, 50 mg/kg/os for 4 days, hypercholesterolaemic diet, control 459.6 ± 51.7",240.0 ± 20.7 mg/100 ml
same,effect on total serum cholesterol and total HDL cholesterol,"[7]; Experiment 1, in words",decrease the total serum cholesterol and to increase the total HDL cholesterol
"CCN(CC)CCOC(=O)C1Oc2ccccc2-c2ccccc21 (centres unmarked) [FCE 21849, 6H,6-(2-diethylaminoethoxycarbonyl)-dibenzo[b,d]pyran]",antibody titres against SRBC,[3],increased the antibody titers several fold as compared to control group
same,LD50 at 168 h,[1],400 to 800 mg/kg

# From patent publication US4463001A, “6-Substituted 6H-dibenzo[b,d]pyran derivatives and process for their preparation” (Farmitalia Carlo Erba S.p.A., priority 1980, dated 1984)
